Data: PubChem BioAssay AID1919005 (Molecular Pharmacology Branch, DTP, NCI, 2023)
Values joined by “and” are separate entries in the source; they are usually repeats but may differ in a detail not shown here. Equal values may be shown once.

Tested on: 855422-203-R-J1-PDC complex spheroid growth
Assay: Anticancer human tumor 855422-203-R-J1-PDC patient-derived bladder carcinoma cell line growth inhibition [AhR]
Settings: for viability, T/C: stronger effect = lower value; active = viability on the fitted dose curve at most 10% of control; inactive = the rest
Outline: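 Spheroids combined tumor cells with HUVEC endothelial cells and human MSCs as stroma. AhR antagonists were paired with standard or investigational drugs, each dosed in half-log steps down from near clinical Cmax, or from 10 microM where Cmax was unknown.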

[1] = curve of first compound, second compound 0.1 µM
[2] = curve of first compound, second compound 0.316 µM
[3] = curve of first compound, second compound 1 µM
[4] = curve of first compound, second compound 3.16 µM
[5] = curve of first compound, second compound 10 µM
[6] = second compound 0.1 µM, first compound 0.0316 µM
[7] = second compound 0.1 µM, first compound 0.1 µM
[8] = second compound 0.1 µM, first compound 0.316 µM
[9] = second compound 0.1 µM, first compound 1 µM
[10] = second compound 0.1 µM, first compound 3.16 µM
[11] = second compound 0.1 µM, first compound 10 µM
[12] = second compound 0.316 µM, first compound 0.0316 µM
[13] = second compound 0.316 µM, first compound 0.1 µM
[14] = second compound 0.316 µM, first compound 0.316 µM
[15] = second compound 0.316 µM, first compound 1 µM
[16] = second compound 0.316 µM, first compound 3.16 µM
[17] = second compound 0.316 µM, first compound 10 µM
[18] = second compound 1 µM, first compound 0.0316 µM
[19] = second compound 1 µM, first compound 0.1 µM
[20] = second compound 1 µM, first compound 0.316 µM
[21] = second compound 1 µM, first compound 1 µM
[22] = second compound 1 µM, first compound 3.16 µM
[23] = second compound 1 µM, first compound 10 µM
[24] = second compound 3.16 µM, first compound 0.0316 µM
[25] = second compound 3.16 µM, first compound 0.1 µM
[26] = second compound 3.16 µM, first compound 0.316 µM
[27] = second compound 3.16 µM, first compound 1 µM
[28] = second compound 3.16 µM, first compound 3.16 µM
[29] = second compound 3.16 µM, first compound 10 µM
[30] = second compound 10 µM, first compound 0.0316 µM
[31] = second compound 10 µM, first compound 0.1 µM
[32] = second compound 10 µM, first compound 0.316 µM
[33] = second compound 10 µM, first compound 1 µM
[34] = second compound 10 µM, first compound 3.16 µM
[35] = second compound 10 µM, first compound 10 µM
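Note: spheroids exposed to agents for seven days before readout.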
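Throughout, for viability, T/C: percent of DMSO vehicle control luminescence viability.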

Nc1ccccc1NC(=O)c1ccc(CNC(=O)OCc2cccnc2)cc1
inactive: viability, T/C (compound 0.0316 µM) 86.3% and 105% and 90.3% | viability, T/C (compound 0.1 µM) 87.8% and 108% and 86.7% | viability, T/C (compound 0.316 µM) 82.7% and 108% and 84.8% | viability, T/C (compound 1 µM) 82.7% and 109% and 97.4% | viability, T/C (compound 3.16 µM) 46.1% and 85.7% and 68.4%
5.42% and 27.3% and 14.9%: viability, T/C (compound 10 µM)
2.8 µM and 6.39 µM and 4.69 µM: IC50 (curve of compound)

O=C(C=Cc1cccc(S(=O)(=O)Nc2ccccc2)c1)NO + Cc1ccccc1N=Nc1ccc(NC(=O)c2ccnn2C)c(C)c1
3.75 µM: IC50 [4]
4.23 µM: IC50 [2]
3.25 µM: IC50 [5]
3.99 µM: IC50 [1]
active: viability, T/C [11] 3.76% | viability, T/C [17] 5.12% | viability, T/C [23] 3.95% | viability, T/C [29] 3.54% | viability, T/C [35] 3.79%
inactive: viability, T/C [6] 104% | viability, T/C [7] 107% | viability, T/C [8] 109% | viability, T/C [9] 111% | viability, T/C [10] 61.7% | viability, T/C [12] 105% | viability, T/C [13] 114% | viability, T/C [14] 111% | viability, T/C [15] 106% | viability, T/C [16] 65.2% | viability, T/C [18] 97.9% | viability, T/C [19] 109% | viability, T/C [20] 111% | viability, T/C [21] 105% | viability, T/C [22] 66.2% | viability, T/C [24] 96.8% | viability, T/C [25] 95.6% | viability, T/C [26] 104% | viability, T/C [27] 96.5% | viability, T/C [28] 58.1% | viability, T/C [30] 87.2% | viability, T/C [31] 95.4% | viability, T/C [32] 88.7% | viability, T/C [33] 79.6% | viability, T/C [34] 51.3%
4.26 µM: IC50 [3]

CC1(C)CCC(CN2CCN(c3ccc(C(=O)NS(=O)(=O)c4ccc(NCC5CCOCC5)c([N+](=O)[O-])c4)c(Oc4cnc5[nH]ccc5c4)c3)CC2)=C(c2ccc(Cl)cc2)C1 + CC(CO)NC(=O)c1cc(-c2ccc(Cl)cc2)nn(-c2cnn(C)c2)c1=O
6.25 µM: IC50 [4]
inactive: viability, T/C [6] 104% | viability, T/C [7] 100% | viability, T/C [8] 110% | viability, T/C [9] 97.8% | viability, T/C [10] 102% | viability, T/C [11] 11.8% | viability, T/C [12] 97.3% | viability, T/C [13] 96.9% | viability, T/C [14] 109% | viability, T/C [15] 100% | viability, T/C [16] 109% | viability, T/C [17] 12.3% | viability, T/C [18] 101% | viability, T/C [19] 103% | viability, T/C [20] 103% | viability, T/C [21] 109% | viability, T/C [22] 106% | viability, T/C [23] 13.2% | viability, T/C [24] 104% | viability, T/C [25] 111% | viability, T/C [26] 108% | viability, T/C [27] 103% | viability, T/C [28] 105% | viability, T/C [29] 12.3% | viability, T/C [30] 94.8% | viability, T/C [31] 104% | viability, T/C [32] 88.3% | viability, T/C [33] 101% | viability, T/C [34] 93.9% | viability, T/C [35] 13.7%
6.19 µM: IC50 [2]
6.14 µM: IC50 [1]
6.3 µM: IC50 [3]
5.94 µM: IC50 [5]

Nc1ccccc1NC(=O)c1ccc(CNC(=O)OCc2cccnc2)cc1 + Cc1ccccc1N=Nc1ccc(NC(=O)c2ccnn2C)c(C)c1
6.86 µM: IC50 [3]
6.25 µM: IC50 [2]
inactive: viability, T/C [6] 101% | viability, T/C [7] 106% | viability, T/C [8] 100% | viability, T/C [9] 107% | viability, T/C [10] 78.4% | viability, T/C [11] 31.1% | viability, T/C [12] 103% | viability, T/C [13] 101% | viability, T/C [14] 104% | viability, T/C [15] 107% | viability, T/C [16] 84% | viability, T/C [17] 26.5% | viability, T/C [18] 106% | viability, T/C [19] 105% | viability, T/C [20] 109% | viability, T/C [21] 111% | viability, T/C [22] 91.2% | viability, T/C [23] 29.8% | viability, T/C [24] 97.4% | viability, T/C [25] 92.7% | viability, T/C [26] 92.1% | viability, T/C [27] 98% | viability, T/C [28] 86.2% | viability, T/C [29] 21.1% | viability, T/C [30] 85.3% | viability, T/C [31] 84.3% | viability, T/C [32] 87.4% | viability, T/C [33] 86.3% | viability, T/C [34] 61.6% | viability, T/C [35] 18.2%
6.01 µM: IC50 [4]
6.31 µM: IC50 [1]
4.29 µM: IC50 [5]

CCN(c1cc(-c2ccc(CN3CCOCC3)cc2)cc(C(=O)NCc2c(C)cc(C)[nH]c2=O)c1C)C1CCOCC1 + Cc1cncc(-c2nc(NCCc3c[nH]c4ccccc34)c3ncn(C(C)C)c3n2)c1
> 3 µM: IC50 [1] | IC50 [2] | IC50 [3] | IC50 [4]
inactive: viability, T/C (second compound 0.1 µM, first compound 0.00949 µM) 90.5% | viability, T/C (second compound 0.1 µM, first compound 0.03 µM) 84.7% | viability, T/C (second compound 0.1 µM, first compound 0.0949 µM) 92% | viability, T/C (second compound 0.1 µM, first compound 0.3 µM) 83.1% | viability, T/C (second compound 0.1 µM, first compound 0.949 µM) 85.3% | viability, T/C (second compound 0.1 µM, first compound 3 µM) 70.7% | viability, T/C (second compound 0.316 µM, first compound 0.00949 µM) 88.9% | viability, T/C (second compound 0.316 µM, first compound 0.03 µM) 78.3% | viability, T/C (second compound 0.316 µM, first compound 0.0949 µM) 86.6% | viability, T/C (second compound 0.316 µM, first compound 0.3 µM) 74.2% | viability, T/C (second compound 0.316 µM, first compound 0.949 µM) 76.2% | viability, T/C (second compound 0.316 µM, first compound 3 µM) 75.7% | viability, T/C (second compound 1 µM, first compound 0.00949 µM) 89.4% | viability, T/C (second compound 1 µM, first compound 0.03 µM) 85.7% | viability, T/C (second compound 1 µM, first compound 0.0949 µM) 74.8% | viability, T/C (second compound 1 µM, first compound 0.3 µM) 75% | viability, T/C (second compound 1 µM, first compound 0.949 µM) 76.1% | viability, T/C (second compound 1 µM, first compound 3 µM) 73.7% | viability, T/C (second compound 3.16 µM, first compound 0.00949 µM) 74.8% | viability, T/C (second compound 3.16 µM, first compound 0.03 µM) 85.5% | viability, T/C (second compound 3.16 µM, first compound 0.0949 µM) 64.1% | viability, T/C (second compound 3.16 µM, first compound 0.3 µM) 51.7% | viability, T/C (second compound 3.16 µM, first compound 0.949 µM) 69% | viability, T/C (second compound 3.16 µM, first compound 3 µM) 66.3% | viability, T/C (second compound 10 µM, first compound 0.00949 µM) 24.9% | viability, T/C (second compound 10 µM, first compound 0.03 µM) 32.4% | viability, T/C (second compound 10 µM, first compound 0.0949 µM) 15.5%
< 0.00949 µM: IC50 [5]
active: viability, T/C (second compound 10 µM, first compound 0.3 µM) 1.7% | viability, T/C (second compound 10 µM, first compound 0.949 µM) 4.26% | viability, T/C (second compound 10 µM, first compound 3 µM) 0.96%

NS(=O)(=O)OCC1CC(n2ccc3c(NC4CCc5ccccc54)ncnc32)CC1O (configuration not stated) + Cc1ccccc1N=Nc1ccc(NC(=O)c2ccnn2C)c(C)c1
2.53 µM: IC50 [2]
0.484 µM: IC50 [5]
inactive: viability, T/C [6] 104% | viability, T/C [7] 110% | viability, T/C [8] 124% | viability, T/C [9] 98.5% | viability, T/C [10] 48.5% | viability, T/C [11] 16.3% | viability, T/C [12] 102% | viability, T/C [13] 113% | viability, T/C [14] 120% | viability, T/C [15] 90.3% | viability, T/C [16] 40.9% | viability, T/C [17] 16.5% | viability, T/C [18] 101% | viability, T/C [19] 115% | viability, T/C [20] 109% | viability, T/C [21] 77.7% | viability, T/C [22] 31.1% | viability, T/C [23] 15.3% | viability, T/C [24] 105% | viability, T/C [25] 110% | viability, T/C [26] 78.8% | viability, T/C [27] 54.2% | viability, T/C [28] 20.7% | viability, T/C [29] 12% | viability, T/C [30] 73.8% | viability, T/C [31] 80.2% | viability, T/C [32] 56.5% | viability, T/C [33] 35.2% | viability, T/C [34] 13.6% | viability, T/C [35] 12.1%
3.02 µM: IC50 [1]
1.03 µM: IC50 [4]
1.97 µM: IC50 [3]
